Data from ChEMBL document CHEMBL1201862, “PubChem BioAssay data set” (2004).
Activity calls are given as the source filed them. For most assays here, no stated cut-off is given here; in the data, actives have a measured EC50 and inactives only a lower limit.

Tests used:
[1] = molecular target: T1, Heat shock factor protein 1 (Mus musculus, UniProt P38532); assay: inhibition of MG132-induced HSE-luciferase signal, confirmation, cell-based, NIH3T3, luminescence, dose retest (AID 2382); assay type: functional;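 further: NIH3T3 fibroblasts with HSF1-driven luciferase reporter stressed by proteasome inhibitor MG132; luminescence from HSF1-driven luciferase expression after 8 hours of MG132 stress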
T1 sequence (P38532 whole entry): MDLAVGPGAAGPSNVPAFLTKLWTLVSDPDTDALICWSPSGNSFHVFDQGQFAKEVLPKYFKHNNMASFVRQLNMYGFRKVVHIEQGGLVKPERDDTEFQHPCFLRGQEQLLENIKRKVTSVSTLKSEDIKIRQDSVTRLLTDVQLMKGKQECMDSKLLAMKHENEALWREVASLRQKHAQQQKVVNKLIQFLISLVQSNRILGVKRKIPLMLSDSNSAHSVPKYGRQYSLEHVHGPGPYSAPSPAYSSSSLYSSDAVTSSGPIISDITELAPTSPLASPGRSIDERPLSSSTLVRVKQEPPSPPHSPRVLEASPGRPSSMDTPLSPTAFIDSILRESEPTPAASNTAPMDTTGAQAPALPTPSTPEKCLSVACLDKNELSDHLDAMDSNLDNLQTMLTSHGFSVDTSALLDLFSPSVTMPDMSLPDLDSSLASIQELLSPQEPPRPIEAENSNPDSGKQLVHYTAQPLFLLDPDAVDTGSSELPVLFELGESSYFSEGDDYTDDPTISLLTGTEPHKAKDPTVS

INS1 = assay: beta cell apoptosis inhibitors, cytokine rescue, dose response, luminescence, retest (AID 449756); assay type: functional, cell-based; details: Rattus norvegicus;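 further: cell death triggered by IL-1 beta plus TNF-alpha plus IFN-gamma mixture; protective hits raise ATP signal compared with cytokine alone wells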
[2] = Luminescence Cell-Based Dose Response HTS to Identify Activators of Luciferase Translation or Activity in H4 […] Cells. [Related pubchem assays: 1829 (Project Summary), 1814 (Primary HTS)]; assay type: functional
H4 = assay: Luminescence Cell-Based Dose Response HTS to Identify Activators of 5'UTR Stem-Loop Driven Prion Protein mRNA Translation in H4 Neuroglioblastoma Cells. [Related pubchem assays: 1829 (Project Summary), 1814 (Primary HTS)]; assay type: functional; details: Homo sapiens
[3] = molecular target: T2, Rac GTPase-activating protein 1 (Homo sapiens, UniProt Q9H0H5); assay: MgcRacGAP GTPase-activating activity inhibitors, confirmation, biochemical, ADP Hunter fluorescence, primary and confirmatory (AID 624330); assay type: functional
T2 sequence (Q9H0H5 whole entry): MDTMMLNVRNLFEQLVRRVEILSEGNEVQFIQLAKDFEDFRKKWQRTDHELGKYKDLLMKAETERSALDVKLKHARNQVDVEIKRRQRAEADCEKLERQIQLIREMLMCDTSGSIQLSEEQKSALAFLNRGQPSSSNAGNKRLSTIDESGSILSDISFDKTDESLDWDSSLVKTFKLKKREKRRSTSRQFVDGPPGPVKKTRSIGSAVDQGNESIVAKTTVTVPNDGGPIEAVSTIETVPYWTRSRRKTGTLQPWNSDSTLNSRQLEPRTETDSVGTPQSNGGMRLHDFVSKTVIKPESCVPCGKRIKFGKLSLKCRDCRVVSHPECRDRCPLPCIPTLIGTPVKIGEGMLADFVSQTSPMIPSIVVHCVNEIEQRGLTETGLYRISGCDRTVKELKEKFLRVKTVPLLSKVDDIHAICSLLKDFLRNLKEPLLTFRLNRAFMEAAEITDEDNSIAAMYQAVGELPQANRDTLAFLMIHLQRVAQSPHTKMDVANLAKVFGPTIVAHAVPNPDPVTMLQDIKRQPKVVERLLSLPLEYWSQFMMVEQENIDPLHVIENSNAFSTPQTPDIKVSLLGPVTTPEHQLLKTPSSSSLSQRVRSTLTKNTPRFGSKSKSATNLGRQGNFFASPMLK

[4] = inhibitors of intracellular T. cruzi replication, confirmation, NIH3T3 host cells, beta-gal luminescence (AID 2044); assay type: functional, cell-based;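 further: intracellular parasites grown in NIH/3T3 mouse fibroblasts as host cells; luminescent beta-galactosidase reporter signal from transgenic T. cruzi replicating inside host cells; inhibitors lower the luminescence signal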
[5] = cytotoxicity toward NIH3T3 fibroblasts, dose response, counter-screen, cell-based, ATP luminescence, mouse fibroblasts (AID 2010); assay type: functional;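 further: cells exposed to compound for about 90 hours before reading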

Question: With `O=C(COc1ccc(F)cc1)Nc1cc(Cl)ccc1-n1cncn1` as the compound, how does the EC50 [1] read?
Answer: > 195 µM (not active)

Question: Which AC50 (INS1) does the source give for `COc1ccc(C2CC(c3cccc(C)c3)n3nc(N)nc3N2)cc1` (stereo unspecified) here?
Answer: > 260 µM (inactive)

Question: With `O=S(=O)(Nc1ccc2c(c1)OCCO2)c1cccc2nsnc12` as the compound, how does the EC50 [1] read?
Answer: 4.32 µM (active)

Question: Which EC50 [1] does the source give for `CC(C)(C)C(=O)/C=C/c1ccc(Oc2ccccc2)cc1` here?
Answer: > 195 µM (not active)

Question: Which EC50 [2] does the source give for `O=C1C(/C=C(\O)c2ccccc2)=NCC2c3ccccc3CCN12` (stereo unspecified) here?
Answer: 0.491 µM (active)

Question: And the EC50 (H4)?
Answer: 8.18 µM (active)

Question: Which AC50 (INS1) does the source give for `CN1N=C(C(C)(C)C)CS/C1=N/c1ccccc1` here?
Answer: > 260 µM (inactive)

Question: For `Cc1ccc(NC(=O)NC(=O)CN2CCN(c3ccc(O)cc3)CC2)c(C)c1`, which EC50 [1] is on record?
Answer: > 195 µM (not active)

Question: And the IC50 [3]?
Answer: 64.9 µM (active)

Question: Which results are given for `CC(=O)/C=C1\N(C)c2ccc(C)cc2C1(C)C`?
Answer: EC50 [4]: 1.93 µM (active); EC50 [5]: > 60 µM (not active); AC50 (INS1): 5.32 µM (active)

Question: Which results are given for `CN(C)c1ccc(NC(S)=NC23CC4CC(CC(C4)C2)C3)cc1`?
Answer: EC50 [2]: 20.6 µM (active); EC50 (H4): 17.1 µM (active); AC50 (INS1): 83.2 µM (active)

Question: With `CC1CCN(C2=NC(=O)/C(=C/c3ccccc3F)S2)CC1` as the compound, how does the EC50 [1] read?
Answer: > 195 µM (not active)

Question: With `NC(=NOC(=O)Cc1ccccc1[N+](=O)[O-])c1cccnc1` as the compound, how does the EC50 [1] read?
Answer: > 195 µM (not active)

Question: For `CCOC(=O)C1C(=O)OC(C)(C)C1C(C)C(=O)c1ccc(C)cc1` (stereo unspecified), which EC50 [1] is on record?
Answer: > 195 µM (not active)

Question: Which AC50 (INS1) does the source give for `O=C(CC1C(=O)NCCN1Cc1ccc(-c2ccccc2)cc1)NC1CCC1` (stereo unspecified) here?
Answer: > 260 µM (inactive)

Question: Which EC50 [1] does the source give for `O=C(Cc1ccccc1)Nc1nc2ccccc2s1` here?
Answer: > 195 µM (not active)

Question: With `O=C(COC(=O)/C=C/c1ccccc1[N+](=O)[O-])Nc1ccc(OCc2ccccc2)cc1` as the compound, how does the EC50 [2] read?
Answer: 4.21 µM (active)

Question: And the EC50 (H4)?
Answer: 40.1 µM (active)

Question: For `O=C(NCc1ccco1)C(=O)NCC(c1ccco1)N1CCOCC1` (stereo unspecified), which EC50 [1] is on record?
Answer: > 195 µM (not active)

Question: For `CSCCC(NC(=O)CCC(=O)OCC(=O)[C@@]1(O)CCC2[C@@H]3CCC4=CC(=O)C=C[C@]4(C)C3[C@@H](O)C[C@@]21C)C(=O)O` (stereo partly specified), which EC50 [1] is on record?
Answer: 0.216 µM (active)

Question: Which results are given for `COc1cc(OC)cc(C(=O)NCC(=O)OCc2nc3ccccc3s2)c1`?
Answer: EC50 [2]: 14.6 µM (active); EC50 (H4): 0.165 µM (active)
